Source: US9023841B2, “Compositions and methods for the treatment of asthma and associated disorders” (University of Southern California, priority 2011, dated 2015)
“Also recorded” adds a separate entry of the source.

Experiments:
[1] = tested on: BALB/c mice; assay: OVA-induced AHR in BALB/c mice treated with autophagy inducers or inhibitor (whole body plethysmography, PenH); format: in vivo; conditions: i.p., DCMI 1 mg/kg, tamoxifen 100 μM, clonidine 0.1 mg/kg, carbamazepine 20 mg/kg, compared to OVA controls
Protocol: FIGS. 3A to 3E illustrate altered development of AHR and lung inflammation in BALB/c mice treated with autophagy inducers and inhibitor. FIG. 3A is a schematic for the sensitization and challenge protocol with administration of autophagy inhibitors and inducers via i.p. injection. FIGS. 3B and C show AHR was determined by whole body plethysmography and is expressed as mean PenH in the presence or absence of (FIG. 3B) autophagy inhibitor desmethylclomipramine (“DCMI”) 1 mg/kg or (FIG. 3C) autophagy inducers tamoxifen 100 μM, clonidine 0.1 mg/kg or carbamazepine 20 mg/kg. FIGS. 3D and E are a quantitative determination of cellular infiltration into BAL was determined by cytospin preparation in the presence or absence of (FIG. 3D) autophagy inhibitor and (FIG. 3E) autophagy inducers. Representative data from two independent experiments with 3 mice per group, expressed as mean±SEM. PBS refer to naïve BALB/c animals. Figure legend: Total: Total of number of cells in the BAL, PMN: polymorphonuclear cells, EOS: Eosinophils, MACRO: Macrophages, Lymph: Lymphocytes
Autophagy inducers (Carbamazepin, Tamoxifen, and Clonidine) and inhibitors (DCMI) were administered on days 10 to 13 (FIG. 9A). […] This was the opposite when treated with the autophagy inducers (Carbamazepin, Tamoxifen, and Clonidine) (FIG. 9C). Therefore, autophagy is an important mediator in AHR.
There are many reported small molecule inducers and inhibitors of autophagy (Balgi et al. (2009) PLoS One 4:e7124; Mizushima et al. (2006) Autophagy 2:302-304; Vooijs et al. (2001) EMBO Rep 2:292-297; Fujita et al. (2008) Mol Biol Cell 19:2092-2100; Kuma et al. (2004) Nature 432:1032-1036; Inoue et al. (2011) Biochem Biophys Res Commun 405:13-18). In preliminary studies, Applicant has used a range of different inducers (tamoxifen (Akbari et al. (2001) Nat Immunol 2:725-731), clonidine (Mizushima et al. (2006) Autophagy 2:302-304) and carbamazepine (Renna et al. (2010) J Biol Chem 285:11061-11067)) and one inhibitor (desmethylclomipramine (“DCMI”) (Balgi et al. (2009) PLoS One 4:e7124)). A standard sensitization and challenge protocol was used for the induction of AHR in BALB/c (FIG. 3A). […] This is in agreement with Applicant's findings using the Atg5Δ animals that inhibition of autophagy has a deleterious effect on lung function. When autophagy is induced (with tamoxifen, clonidine or carbamazepine) AHR after sensitization and challenge with OVA is reduced compared to controls (FIG. 3C). […] When autophagy is inhibited total cell numbers in the BAL are increased (FIG. 3D) in contrast, in the presence of autophagy inducers total cell numbers and in particular eosinophils are reduced (FIG. 3E).

[2] = tested on: BALB/c mice; assay: Cellular infiltration into BAL by cytospin preparation, OVA model; format: in vivo; conditions: OVA sensitized and challenged BALB/c, i.p. treatment
Protocol: FIGS. 3A to 3E illustrate altered development of AHR and lung inflammation in BALB/c mice treated with autophagy inducers and inhibitor. FIG. 3A is a schematic for the sensitization and challenge protocol with administration of autophagy inhibitors and inducers via i.p. injection. FIGS. 3B and C show AHR was determined by whole body plethysmography and is expressed as mean PenH in the presence or absence of (FIG. 3B) autophagy inhibitor desmethylclomipramine (“DCMI”) 1 mg/kg or (FIG. 3C) autophagy inducers tamoxifen 100 μM, clonidine 0.1 mg/kg or carbamazepine 20 mg/kg. FIGS. 3D and E are a quantitative determination of cellular infiltration into BAL was determined by cytospin preparation in the presence or absence of (FIG. 3D) autophagy inhibitor and (FIG. 3E) autophagy inducers. Representative data from two independent experiments with 3 mice per group, expressed as mean±SEM. PBS refer to naïve BALB/c animals. Figure legend: Total: Total of number of cells in the BAL, PMN: polymorphonuclear cells, EOS: Eosinophils, MACRO: Macrophages, Lymph: Lymphocytes […]

[3] = tested on: moderate to severe patients with asthma; conditions: clinical trial; cited from earlier work
[4] = tested on: BALB/c mice; assay: Acute OVA-induced AHR (PenH, methacholine challenge), a4-vFLIP peptide; format: in vivo; conditions: acute OVA model, 300 μg i.p. days 11 to 13, compared to OVA+TAT pep, P<0.003
Protocol: Briefly on day 1, naïve BALB/c mice (N=5 per group) received an intraperitoneal (i.p.) injection with ovalbumin (OVA) ([…]) in Alum (2 mg). After resting for 10 days, mice were treated intranasally (i.n.) with OVA (50 μg) and i.p. with the autophagy inducer α4-TAT-vFLIP ([…]) on days 11 to 13. On day 14, the enhanced pause (PenH) variable was measured to determine airway hyperreactivity (AHR).
Briefly, administration of alpha4-TAT-vFLIP (a.k.a. a4-vFLIP) peptide restores lung function in an acute model of OVA induced asthma. Increasing doses of methacholine, a muscarinic receptor agonist to induce AHR, was administered to the different treatment groups of mice and the PenH was determined. […] Ctrl group (dark triangles) after methacholine challenge. […] Therefore, the autophagy peptide inducer a4-vFLIP was able to reduce AHR after OVA challenge.

[5] = tested on: BALB/c mice; assay: Lung histology (hematoxylin and eosin), OVA model; format: in vivo; conditions: OVA+vFLIP compared to OVA alone
Text: (§1) Thereafter, lung sections were stained with hematoxylin and eosin (HE) from the different groups in the HDM and OVA models. Airway inflammation and remodeling were decreased in the HDM/OVA+vFLIP compared to OVA/HDM alone based on smooth muscle hyperplasia, epithelial cell proliferation, subepithelial fibrosis and basement membrane thickening.

[6] = tested on: BALB/c mice; assay: Lung histology (hematoxylin and eosin), HDM model; format: in vivo; conditions: HDM+vFLIP compared to HDM alone
Text: as §1

[7] = tested on: BALB/c mice; assay: Acute HDM-induced AHR (PenH, methacholine challenge), a4-vFLIP peptide; format: in vivo; conditions: acute HDM model, 300 μg i.p. days 13 to 15, compared to HDM+TAT pep, P<0.003
Protocol: FIG. 9D illustrates a protocol to induce acute AHR by HDM. On day 1, naïve BALB/c mice (N=5 per group) received an intranasal (i.n.) injection with house dust mite (HDM) ([…]). After resting for 6 days, mice were treated intranasally (i.n.) with HDM ([…]) from days 7 to 14 and i.p. with the autophagy inducer a4-TAT-vFLIP (300 μg) on days 13 to 15. On day 16, the enhanced pause (PenH) variable was measured to determine airway hyperreactivity (AHR).
Increasing doses of methacholine, a muscarinic receptor agonist to induce AHR, was administered to the different treatment groups of mice and the PenH was determined. […] Ctrl group (dark triangles) after methacholine challenge. […] Therefore, the autophagy peptide inducer was able to reduce AHR after HDM challenge.

[8] = tested on: BALB/c mice; assay: Chronic OVA-induced AHR (PenH); format: in vivo; conditions: TAT as irrelevant peptide control
Protocol: BALB/c mice were treated with OVA to induce chronic AHR and administered a4-TAT-vFLIP (as autophagy inducer) and TAT (as irrelevant peptide, control). AHR was assessed by Pen H (enhanced pause).

## CNCCCN1c2ccccc2CCc2ccc(Cl)cc21 [DCMI, desmethylclomipramine]
[1]
  AHR (mean PenH) after sensitization and challenge with OVA: greatly increased; also recorded: significant increase
[2]
  total cell numbers in the BAL: increased

## Clc1cccc(Cl)c1N=C1NCCN1 [clonidine]
[1]
  AHR (mean PenH) after sensitization and challenge with OVA: reduced
[1]; listed as Clonidine
  AHR (mean PenH) after sensitization and challenge with OVA: opposite

## CC/C(=C(\c1ccccc1)c1ccc(OCCN(C)C)cc1)c1ccccc1 [tamoxifen]
[1]
  AHR (mean PenH) after sensitization and challenge with OVA: reduced
[1]; listed as Tamoxifen
  AHR (mean PenH) after sensitization and challenge with OVA: opposite

## NC(=O)N1c2ccccc2C=Cc2ccccc21 [carbamazepine]
[1]
  AHR (mean PenH) after sensitization and challenge with OVA: reduced
[1]; listed as Carbamazepin
  AHR (mean PenH) after sensitization and challenge with OVA: opposite
[3]
  efficacy for the treatment of asthma: improve asthma; also recorded: high efficacy

## RRRQRRKKRGY-G-LMNSFVCLIVSS (RRRQRRKKRGYGLMNSFVCLIVSS) [a4-vFLIP, autophagy peptide inducer, 24aa TAT-fused α4 vFLIP peptide]
[4]
  AHR (PenH) after methacholine challenge: statistically significant reduction
[5]
  Airway inflammation and remodeling (smooth muscle hyperplasia, epithelial cell proliferation, subepithelial fibrosis, basement membrane thickening): decreased
[6]
  Airway inflammation and remodeling (smooth muscle hyperplasia, epithelial cell proliferation, subepithelial fibrosis, basement membrane thickening): decreased
[7]
  AHR (PenH) after methacholine challenge: statistically significant reduction
[8]
  chronic AHR (PenH): decreased levels of AHR
